Columns and labels:
Human melanocytes = experiment: cytotoxicity to cultured human melanocytes; format: cell-based; details: 0.1 mM, 0.25 mM, 0.5 mM and 0.75 mM in human melanocyte culture
[1] = target: T1, human melanocyte tyrosinase (Homo sapiens, UniProt P14679); experiment: dopa-oxidase activity of human melanocyte tyrosinase after culturing melanocytes with compound; format: cell-based; details: human melanocytes cultured three days, 5 mM L-dopa, absorbance 475 nm, read-out: Percentage of inhibition
T1 construct: Human melanocytes are prepared and cultured; endogenous in cells; host or cells: cultured human melanocytes
T1 sequence (P14679 19-529): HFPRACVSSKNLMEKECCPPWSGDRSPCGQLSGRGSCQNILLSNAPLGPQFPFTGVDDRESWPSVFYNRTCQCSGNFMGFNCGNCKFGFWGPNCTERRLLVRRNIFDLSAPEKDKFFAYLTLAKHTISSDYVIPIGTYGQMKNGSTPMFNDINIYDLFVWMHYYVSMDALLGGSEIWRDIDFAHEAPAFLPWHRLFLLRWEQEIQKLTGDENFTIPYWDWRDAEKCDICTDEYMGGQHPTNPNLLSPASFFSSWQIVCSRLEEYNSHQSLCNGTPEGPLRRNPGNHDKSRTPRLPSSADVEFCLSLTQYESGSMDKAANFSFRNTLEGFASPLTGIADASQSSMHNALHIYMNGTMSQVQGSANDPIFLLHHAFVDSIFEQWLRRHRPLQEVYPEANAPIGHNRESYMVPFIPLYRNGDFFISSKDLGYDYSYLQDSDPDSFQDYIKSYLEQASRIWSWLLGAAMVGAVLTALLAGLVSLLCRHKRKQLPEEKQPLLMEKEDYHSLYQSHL
Procedure: The effectiveness of the compound of formula (1) as a tyrosinase inhibitor is determined by evaluating its effect on the dopa-oxidase activity of human melanocyte tyrosinase. The compound tested is N,N'-di(3-hydroxybenzyl)ethylenediamine-N,N'-diacetic acid of formula (II): [drawing 5]
Human melanocytes are prepared and cultured and then introduced into media containing different, non-cytotoxic concentrations of the compound of formula (II) (0.1 mM, 0.25 mM, 0.5 mM and 0.75 mM). After three days, the melanocytes are "trypsinized" in a mixture of trypsin/0.05% EDTA/0.02% in a phosphate buffer (50 mM at pH 6.8), washed three times in the phosphate buffer containing 1% (w/v) Triton x-100 and subjected to ultrasound. After centrifugation, samples are taken and mixed with 5 mM L-dopa in phosphate buffer. The tyrosinase activity is evaluated by spectrophotometry by measuring the increase in the absorbance at 475 nm because of the formation of dopachrome from 5 mM dope. The absorbance is read on a microplate reader at 25° C. for 60 min.
The activity of the cellular tyrosinase is measured relative to a standard range prepared with commercial tyrosinase.

inhibition at 100 µM ([1]; 0.1 mM compound): 19% | inhibition at 250 µM ([1]; 0.25 mM compound): 30% | inhibition at 500 µM ([1]; 0.5 mM compound): 33% | inhibition at 750 µM ([1]; 0.75 mM compound): 42%
SMILES: O=C(O)CN(CCN(CC(=O)O)Cc1cccc(O)c1)Cc1cccc(O)c1 [compound of formula (II), N,N'-di(3-hydroxybenzyl)ethylenediamine-N,N'-diacetic acid]
cytotoxicity of the concentrations used (Human melanocytes): non-cytotoxic

Reference: US5834518A, “Use of N,N'-dibenzylethylenediamine-N,N'-diacetic acid derivatives as depigmenting agents” (L'Oreal, priority 1996, dated 1998)
